Test results published in ChEMBL document CHEMBL3259764, “Pim kinase inhibitory and antiproliferative activity of a novel series of meridianin C derivatives” (Bioorg Med Chem Lett, 2014).

Columns and labels:
[1] = target: Serine/threonine-protein kinase pim-3 (Homo sapiens, UniProt Q86V86); assay: Inhibition of PIM3 kinase (unknown origin) using 5-FAM-labeled BAD peptide as substrate after 90 mins by fluorescence polarization assay
[2] = target: Serine/threonine-protein kinase pim-1 (Homo sapiens, UniProt P11309); assay: Inhibition of PIM1 kinase (unknown origin) using 5-FAM-labeled BAD peptide as substrate after 90 mins by fluorescence polarization assay
Serine/threonine-protein kinase pim-1, sequence (P11309 whole entry): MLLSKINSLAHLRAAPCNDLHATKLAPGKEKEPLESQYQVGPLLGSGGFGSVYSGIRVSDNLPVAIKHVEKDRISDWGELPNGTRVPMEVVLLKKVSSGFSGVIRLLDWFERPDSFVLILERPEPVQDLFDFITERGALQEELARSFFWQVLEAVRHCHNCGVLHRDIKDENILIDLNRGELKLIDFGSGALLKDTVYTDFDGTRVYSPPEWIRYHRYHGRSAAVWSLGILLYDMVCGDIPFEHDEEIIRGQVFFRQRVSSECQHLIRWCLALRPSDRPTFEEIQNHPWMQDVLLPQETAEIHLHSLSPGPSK

[3] = target: Serine/threonine-protein kinase pim-2 (Homo sapiens, UniProt Q9P1W9); assay: Inhibition of PIM2 kinase (unknown origin) using 5-FAM-labeled BAD peptide as substrate after 90 mins by fluorescence polarization assay
Serine/threonine-protein kinase pim-2, sequence (Q9P1W9 whole entry): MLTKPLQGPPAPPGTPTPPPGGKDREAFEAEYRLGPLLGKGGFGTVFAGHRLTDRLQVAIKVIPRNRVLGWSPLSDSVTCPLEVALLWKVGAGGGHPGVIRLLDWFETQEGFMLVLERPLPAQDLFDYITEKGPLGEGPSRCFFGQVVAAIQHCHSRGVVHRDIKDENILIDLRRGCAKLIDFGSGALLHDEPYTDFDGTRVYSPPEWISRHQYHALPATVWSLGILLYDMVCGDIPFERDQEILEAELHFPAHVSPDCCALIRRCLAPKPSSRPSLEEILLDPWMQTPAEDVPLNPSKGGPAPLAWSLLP

[4] = Antiproliferative activity against human Jurkat E6-1 cells assessed as cell viability after 24 hrs by MTS assay; assay type: functional, cell-based
[5] = system: K562; assay: Antiproliferative activity against human K562 cells assessed as cell viability after 24 hrs by MTS assay; assay type: functional, cell-based; conditions: K562, 24 h
[6] = Antiproliferative activity against human MV411 cells assessed as cell viability after 24 hrs by MTS assay; assay type: functional, cell-based; conditions: MV4-11, 24 h
[7] = system: Caco-2; assay: Permeability across human Caco2 cells; assay type: ADME, cell-based
[8] = target: CDK2/Cyclin A2 (Homo sapiens) (UniProt P24941+P20248); assay: Inhibition of CDK2/cyclinA kinase (unknown origin) at 10 uM; assay type: protein-complex assay

| IC50 [1] [nM] | IC50 [2] [nM] | IC50 [3] [nM] | EC50 [5] [nM] | permeability [7] | inhibition [8] [%] | Structure (SMILES) | EC50 [4] [nM] | EC50 [6] [nM] |
| --- | --- | --- | --- | --- | --- | --- | --- | --- |
| 31.3 | 18.3 | 630 | – | – | – | CN(C)CCCNc1cncc(-c2ccc3[nH]cc(-c4ccnc(N)n4)c3c2)n1 | – | – |
| 7.8 | 8 | 180 | – | – | – | CN(C)CCN(C)c1cncc(-c2ccc3[nH]cc(-c4ccnc(N)n4)c3c2)n1 | – | – |
| – | 400 | – | – | – | – | CN(C)CCOc1cncc(-c2ccc3[nH]cc(C(=O)c4ccccc4)c3c2)n1 | – | – |
| – | 1040 | – | – | – | – | Nc1nccc(-c2c[nH]c3ccc(Br)cc23)n1 [MERIDIANIN C] | – | – |
| 20.5 | 18.7 | 540 | – | – | – | CN(C)CCCOc1cncc(-c2ccc3[nH]cc(-c4ccnc(N)n4)c3c2)n1 | – | – |
| 9.9 | 2.8 | 310 | – | – | – | CCN(CC)CCNc1cncc(-c2ccc3[nH]cc(-c4ccnc(N)n4)c3c2)n1 | – | – |
| 55.7 | 34.5 | 660 | 13700 | – | – | CCN(CC)CCCOc1cncc(-c2ccc3[nH]cc(-c4ccnc(N)n4)c3c2)n1 | 10900 | 1500 |
| – | 1130 | – | – | – | – | CN(C)/C=C/C(=O)c1c[nH]c2ccc(-c3cncc(OCCN(C)C)n3)cc12 | – | – |
| – | 370 | – | – | – | – | CN(C)/C=C/C(=O)c1c[nH]c2ccc(-c3cncc(NCCN(C)C)n3)cc12 | – | – |
| 21.7 | 20.4 | 380 | 18500 | – | – | CN(C)CCOc1cncc(-c2ccc3[nH]cc(-c4ccnc(N)n4)c3c2)n1 | 13500 | 2900 |
| 30 | 25.8 | 590 | 17900 | – | – | CCN(CC)CCOc1cncc(-c2ccc3[nH]cc(-c4ccnc(N)n4)c3c2)n1 | 14400 | 3300 |
| 6.5 | 3.4 | 110 | – | permeable | – | CN(C)CCNc1cncc(-c2ccc3[nH]cc(-c4ccnc(N)n4)c3c2)n1 | – | – |
| – | 270 | – | – | – | – | CC(=O)c1c[nH]c2ccc(-c3cncc(NCCN(C)C)n3)cc12 | – | – |
| – | – | – | – | – | 54 | Nc1nccc(-c2c[nH]c3ccccc23)n1 | – | – |
| 50.9 | 45.1 | 740 | 20800 | permeable | – | CCOc1cncc(-c2ccc3[nH]cc(-c4ccnc(N)n4)c3c2)n1 | 15000 | 500 |
| 30.2 | 17.2 | 920 | – | – | – | CCN(CC)CCCNc1cncc(-c2ccc3[nH]cc(-c4ccnc(N)n4)c3c2)n1 | – | – |
| – | 270 | – | – | – | – | CN(C)CCNc1cncc(-c2ccc3[nH]cc(C(=O)C4CC4)c3c2)n1 | – | – |
